Data as given in patent publication US6730792B2, “β3 adrenergic agonists” (Eli Lilly and Company, priority 2000, dated 2004).

Target: T1, human β3 adrenergic receptor (Homo sapiens, UniProt P13945)
T1 construct: expressed in transfected cells; host or cells: DXB-11 Chinese hamster ovary (CHO) cell line, stably transfected (phd expression vector)
Test: whole cell receptor coupled c-AMP assay, human β3 receptor in CHO cells (EC50, Emax relative to isoproterenol)
Format: cell-based
How it was run: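 Stably transfected DXB-11 CHO cells (20,000/well) were exposed to compound for 20 min at 37 °C in HBSS/HEPES buffer with 1 mM IBMX, pH 7.4. cAMP was measured by SPA. EC50 came from a four-parameter logistic fit, and Emax is the maximal response as a percentage of isoproterenol's.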

[1] = Emax ± standard error of the mean, average of at least 3 runs except where n = 1, compound tested in the isolated form listed
[2] = % intrinsic activity relative to isoproterenol maximal response, average of at least 3 runs, c-AMP in transfected CHO cells
[3] = Emax ± SEM, average of at least 3 runs except as otherwise indicated, tested as the isolated form listed

T1 sequence (P13945 whole entry): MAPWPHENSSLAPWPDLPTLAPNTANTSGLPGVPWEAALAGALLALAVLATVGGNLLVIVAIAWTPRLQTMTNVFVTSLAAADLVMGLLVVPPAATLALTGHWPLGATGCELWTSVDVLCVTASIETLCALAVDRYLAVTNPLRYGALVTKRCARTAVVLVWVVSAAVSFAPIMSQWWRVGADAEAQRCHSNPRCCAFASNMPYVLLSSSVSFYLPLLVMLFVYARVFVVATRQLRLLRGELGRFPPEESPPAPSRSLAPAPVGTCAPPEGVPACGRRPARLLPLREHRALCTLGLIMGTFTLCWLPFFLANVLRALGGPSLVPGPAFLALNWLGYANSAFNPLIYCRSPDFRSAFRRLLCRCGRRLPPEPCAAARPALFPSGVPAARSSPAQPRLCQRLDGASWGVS

CC(C)(Cc1ccc(Oc2cccc(Cl)c2C(N)=O)cc1)NC[C@H](O)COc1ccccc1-c1cscn1.Cl [Example 246]
Emax (%) ± SEM [1]: 52.1 ± 2.4%

CC(C)(Cc1ccc(Oc2cccnc2C(N)=O)cc1)NC[C@H](O)COc1ccccc1-c1ccno1.O=C(O)C(F)(F)F [Example 198]
Emax (%) ± SEM [1]: 48.1 ± 6.5%

CC(C)(Cc1ccc(Oc2ccc(C(N)=O)cc2)cc1)NC[C@H](O)COc1ccccc1-c1ccns1.O=C(O)C(F)(F)F [Example 126]
Emax (%) ± SEM [1]: 62.2 ± 1.3%

CC(C)(Cc1ccc(Oc2ncccc2C#N)cc1)NC[C@H](O)COc1ccccc1-c1ccno1.Cl [Example 54]
Emax (%) ± SEM [1]: 66.8 ± 6.8%

CC(C)(Cc1ccc(Oc2ccc(C(N)=O)cc2F)cc1)NC[C@H](O)COc1ccccc1-c1cscn1.Cl [Example 252]
Emax (%) ± SEM [1]: 38.4 ± 3.8%

CC(C)(Cc1ccc(Oc2ccc(C#N)cn2)cc1)NC[C@H](O)COc1ccccc1-c1nccs1 [Example 6]
Emax (%) ± SEM [1]: 58.7 ± 1.8%

CC1(C)COC(c2ccccc2OC[C@@H](O)CNC(C)(C)Cc2ccc(Oc3ncccc3C(N)=O)cc2)=N1.Cl [Example 83]
Emax (%) ± SEM [1]: 83.5 ± 4.4%

CC(C)(Cc1ccc(Oc2ncccc2C(N)=O)cc1)NC[C@H](O)COc1ccccc1-c1ccno1 [Example 72]
Emax (%) ± SEM [1]: 67.6 ± 7.1%

CC(C)(Cc1ccc(Oc2ncccc2C#N)cc1)NC[C@H](O)COc1ccccc1-c1ccco1.Cl [Example 416]
Emax (%) ± SEM [2]: 68.9 ± 6.7%

CC(C)(Cc1ccc(Oc2ccc(S(C)(=O)=O)cc2Cl)cc1)NC[C@H](O)COc1ccccc1-c1cccs1.O=C(O)C(F)(F)F [Example 181]
Emax (%) ± SEM [1]: 66.2 ± 1.6%

CC(C)(Cc1ccc(Oc2ccc(C(N)=O)cc2F)cc1)NC[C@H](O)COc1ccccc1-c1cccs1.O=C(O)C(F)(F)F [Example 190]
Emax (%) ± SEM [1]: 54.5 ± 3.3%

CC(C)(Cc1ccc(Oc2ccc(C(N)=O)nc2)cc1)NC[C@H](O)COc1ccccc1-c1ccon1.Cl [Example 298]
Emax (%) ± SEM [1]: 54.5 ± 0.8%

CC(C)(Cc1ccc(Oc2ccc(C(N)=O)cn2)cc1)NC[C@H](O)COc1cccc(C2=NCCN2)c1 [Example 59]
Emax (%) ± SEM [1]: <10%

CC(C)(Cc1ccc(Oc2cccnc2C#N)cc1)NC[C@H](O)COc1ccccc1-c1nccs1.O=C(O)C(F)(F)F [Example 144]
Emax (%) ± SEM [1]: 55.9 ± 1.1%

CC(C)(Cc1ccc(Oc2cccc(Cl)c2C(N)=O)cc1)NC[C@H](O)COc1ccccc1-c1cccs1.O=C(O)C(F)(F)F [Example 218]
Emax (%) ± SEM [1]: 76.5 ± 1.7%

CC(C)(Cc1ccc(Oc2ccc(S(C)(=O)=O)cc2)cc1)NC[C@H](O)COc1ccccc1-c1ccsc1.Cl [Example 382]
Emax (%) ± SEM [2]: 32.3 ± 1.9%

CC(C)(Cc1ccc(Oc2ccc(C#N)cn2)cc1)NC[C@H](O)COc1ccccc1-c1cccnc1 [Example 388]
Emax (%) ± SEM [2]: <10%

CC(C)(Cc1ccc(Oc2ncccc2C(N)=O)cc1)NC[C@H](O)COc1ccccc1-n1cccc1.Cl [Example 85]
Emax (%) ± SEM [1]: 69.2 ± 12.1%

CC(C)(Cc1ccc(Oc2ccc(C(N)=O)cc2)cc1)NC[C@H](O)COc1ccccc1-c1ccon1.Cl [Example 299]
Emax (%) ± SEM [1]: 45.9 ± 3.9%

CC(C)(Cc1ccc(Oc2ccc(C(N)=O)cn2)cc1)NC[C@H](O)COc1ccccc1-c1cscn1.Cl [Example 248]
Emax (%) ± SEM [1]: 47.5 ± 4.8%

CC(C)(Cc1ccc(Oc2ccc(S(C)(=O)=O)cc2)cc1)NC[C@H](O)COc1cc(F)ccc1C1=CC(=O)OC1.Cl [Example 136]
Emax (%) ± SEM [1]: <10%

CC(C)(Cc1ccc(Oc2ncccc2Cl)cc1)NC[C@H](O)COc1ccccc1-c1nccs1.O=C(O)C(F)(F)F [Example 179]
Emax (%) ± SEM [1]: 62.2 ± 8.6%

CC(C)(Cc1ccc(Oc2cnccn2)cc1)NC[C@H](O)COc1ccccc1-c1nccs1.O=C(O)C(F)(F)F [Example 154]
Emax (%) ± SEM [1]: 61.1 ± 7.7%

CC(C)(Cc1ccc(Oc2ccc(C(N)=O)cc2)cc1)NC[C@H](O)COc1ccccc1-c1nccs1.O=C(O)C(F)(F)F [Example 124]
Emax (%) ± SEM [1]: 46.7 ± 3.6%

CC(C)(Cc1ccc(Oc2ccc(C(N)=O)cn2)cc1)NC[C@H](O)COc1ccccc1-c1ccn[nH]1 [Example 19]
Emax (%) ± SEM [1]: 31.3 n = 1%

CC(C)(Cc1ccc(Oc2ccc(C(N)=O)cn2)cc1)NC[C@H](O)COc1ccccc1-c1ccncn1 [Example 75]
Emax (%) ± SEM [1]: 40.3 ± 3.7%

Cc1ccc(-c2ccccc2OC[C@@H](O)CNC(C)(C)Cc2ccc(Oc3ncccc3C#N)cc2)s1.Cl [Example 413]
Emax (%) ± SEM [2]: 66.9 ± 9.2%

CC(C)(Cc1ccc(Oc2ncccn2)cc1)NC[C@H](O)COc1ccccc1-c1nccs1.O=C(O)C(F)(F)F [Example 151]
Emax (%) ± SEM [1]: 73.1 ± 3.8%

CC(C)(Cc1ccc(Oc2ccncc2)cc1)NC[C@H](O)COc1ccccc1-c1cccs1.O=C(O)C(F)(F)F [Example 202]
Emax (%) ± SEM [1]: 59.1 ± 6.0%

CC(C)(Cc1ccc(Oc2ccc(C#N)cc2)cc1)NC[C@H](O)COc1ccccc1-c1ccno1.O=C(O)C(F)(F)F [Example 121]
Emax (%) ± SEM [1]: 38.9 ± 7.1%

CC(C)(Cc1ccc(Oc2ccccc2C#N)cc1)NC[C@H](O)COc1ccccc1-c1ccns1.O=C(O)C(F)(F)F [Example 213]
Emax (%) ± SEM [1]: 63.0 ± 3.2%

CC(C)(Cc1ccc(Oc2ccc(C#N)cn2)cc1)NC[C@H](O)COc1c(F)cccc1-c1ccc(Cl)s1.Cl [Example 428]
Emax (%) ± SEM [2]: 75.5 ± 6.9%

CC(C)(Cc1ccc(Oc2ncccc2C#N)cc1)NC[C@H](O)COc1ccccc1-c1nccs1 [Example 52]
Emax (%) ± SEM [1]: 70.1 ± 3.3%

CC(C)(Cc1ccc(Oc2ccc(S(C)(=O)=O)cc2)cc1)NC[C@H](O)COc1ccccc1-c1ccc(Cl)s1.Cl [Example 393]
Emax (%) ± SEM [2]: 50.0 ± 3.6%

CC(C)(Cc1ccc(Oc2ccc(C#N)nc2)cc1)NC[C@H](O)COc1ccccc1-c1ccon1.Cl [Example 300]
Emax (%) ± SEM [3]: 52.2 ± 5.9%

CC(C)(Cc1ccc(Oc2ccc(C(N)=O)cn2)cc1)NC[C@H](O)COc1ccccc1-n1ccc(C#N)c1.Cl [Example 272]
Emax (%) ± SEM [1]: 35.7 ± 2.8%

CC(C)(Cc1ccc(Oc2ncccc2C(N)=O)cc1)NC[C@H](O)COc1ccccc1-c1csnn1.O=C(O)C(=O)O [Example 98]
Emax (%) ± SEM [1]: 39.2 ± 4.0%

CC(=O)c1ccc(-c2ccccc2OC[C@@H](O)CNC(C)(C)Cc2ccc(Oc3ccc(C(N)=O)cn3)cc2)s1.O=C(O)C(F)(F)F [Example 411]
Emax (%) ± SEM [2]: 78.2 ± 9.9%

CC(C)(Cc1ccc(Oc2ccccc2C(N)=O)cc1)NC[C@H](O)COc1ccc(F)cc1-c1cccs1.O=C(O)C(F)(F)F [Example 227]
Emax (%) ± SEM [1]: 51.3 ± 10.8%

CC(C)(Cc1ccc(Oc2ncccc2C(N)=O)cc1)NC[C@H](O)COc1ccccc1-c1ccncc1 [Example 376]
Emax (%) ± SEM [2]: 48.2 ± 6.7%

CC(C)(Cc1ccc(Oc2ccc(C(N)=O)cn2)cc1)NC[C@H](O)COc1ccccc1-c1ccc(Cl)s1.Cl [Example 410]
Emax (%) ± SEM [2]: 76.0 ± 5.0%

CC(C)(Cc1ccc(Oc2ccc(C(N)=O)cn2)cc1)NC[C@H](O)COc1ccccc1-c1cccs1 [Example 16]
Emax (%) ± SEM [1]: 67.6 ± 4.7%

CC(C)(Cc1ccc(Oc2ncccc2C(N)=O)cc1)NC[C@H](O)COc1cccc(-c2ccno2)c1 [Example 93]
Emax (%) ± SEM [1]: <10%

CC(C)(Cc1ccc(Oc2ccc(S(C)(=O)=O)cc2)cc1)NC[C@H](O)COc1ccccc1-c1cccs1.Cl [Example 383]
Emax (%) ± SEM [2]: 52.1 ± 5.4%

CC(C)(Cc1ccc(Oc2ccc(S(C)(=O)=O)cc2)cc1)NC[C@H](O)COc1ccccc1-c1ccon1.Cl [Example 134]
Emax (%) ± SEM [1]: 47.7 ± 6.5%

CC(C)(Cc1ccc(Oc2ccccn2)cc1)NC[C@H](O)COc1ccccc1-c1cccs1.O=C(O)C(F)(F)F [Example 1]
Emax (%) ± SEM [1]: 58.1 ± 2.6%

CC(C)(Cc1ccc(Oc2ccc(C#N)cn2)cc1)NC[C@H](O)COc1ccccc1-c1cc2ccccc2[nH]1 [Example 9]
Emax (%) ± SEM [1]: 23.7 ± 10.0%

CC(C)(Cc1ccc(Oc2cccc(Cl)c2C#N)cc1)NC[C@H](O)COc1ccccc1-c1ccno1.O=C(O)C(F)(F)F [Example 217]
Emax (%) ± SEM [1]: 76.2 ± 8.3%

CC(C)(Cc1ccc(Oc2ccc(C(N)=O)cc2Cl)cc1)NC[C@H](O)COc1ccccc1-c1cccs1.O=C(O)C(F)(F)F [Example 164]
Emax (%) ± SEM [1]: 67.3 ± 3.5%

CC(C)(Cc1ccc(Oc2ccccc2C(N)=O)cc1)NC[C@H](O)COc1ccccc1-c1ccon1.Cl [Example 301]
Emax (%) ± SEM [3]: 69.2 ± 1.2%

CC(C)(Cc1ccc(Oc2nc(Cl)c(Cl)cc2Cl)cc1)NC[C@H](O)COc1ccccc1-c1ccno1.O=C(O)C(F)(F)F [Example 158]
Emax (%) ± SEM [1]: 73.0 ± 3.0%

CC(C)(Cc1ccc(Oc2ccccc2C(N)=O)cc1)NC[C@H](O)COc1cccc(F)c1-c1cccs1.O=C(O)C(F)(F)F [Example 228]
Emax (%) ± SEM [1]: 28.9 ± 3.4%

Cc1ccc(-c2ccccc2OC[C@@H](O)CNC(C)(C)Cc2ccc(Oc3ccc(S(C)(=O)=O)cc3)cc2)s1.Cl [Example 396]
Emax (%) ± SEM [2]: 50.5 ± 1.9%

CC(C)(Cc1ccc(Oc2ncccc2C(N)=O)cc1)NC[C@H](O)COc1ccccc1-n1ccc(C#N)c1.Cl [Example 271]
Emax (%) ± SEM [1]: 39.0 ± 0.6%

CC(=O)c1ccc(-c2cccc(F)c2OC[C@@H](O)CNC(C)(C)Cc2ccc(Oc3ncccc3C#N)cc2)s1.O=C(O)C(F)(F)F [Example 439]
Emax (%) ± SEM [2]: 75.0 ± 9.6%
